Patent US20230301924A1, “PHARMACEUTICAL FORMULATION” (Janssen Pharmaceuticals, Inc., priority 2020, published 2023)

Assays:
Assay type in all cases: physicochemical
[1] = Solubility test in Gelucire 50/13 and PEG 3350
Method: Compound (a) was weighed into a 1.5 mL HPLC vial, added about 1 mL or 880 mg of molten media, then kept stirring at different temperature at 700 rpm (see details in Table 1). Compound (a) was added until a suspension was visually observable. After stirring for about 24 hours, the obtained mixtures were quickly transferred to a filter centrifugal tube and centrifuged at 40° C. for 1 minute at 14000 rpm rate. The solution in the bottom of the filter centrifugal tube was weighed into 10 mL or 25 mL volumetric flasks (about 15-20 mg), diluents were added (ACN: water=1:1 v/v for PEG3350 or MeOH:water=8:2 v/v for Gelucire 50/13), ultrasonicated for 10 min and more diluent was added to scale and analyzed by UPLC (see method above).

[2] = Solubility test in PEG1000
Method: About 0.5 g of compound (a) was weighed into 4 mL glass vials, 1.5 g of molten PEG1000 were then added and kept stirring at 40° C. or 50° C. at 700 rpm. After stirring for 24 hours, the obtained mixtures were transferred into a filter centrifugal tube and centrifuged at 40° C. for 1 minute at 14000 rpm rate. The solution in the bottom of filter centrifugal tube wad weighed into 25 mL volumetric flasks (about 25 mg), diluent was added ACN:H2O=1:1 v/v, ultrasonicated for 10 min and more diluent was added to scale and analyzed by UPLC (see method above).

[3] = Solubility test in TPGS with different ratios of PEG1000
Method: About 0.2 g of compound (a) was weighed into 1.5 mL HPLC vials, 0.6 g of molten TPGS, TPGS with 5%, 10% or 15% PEG1000 (in w/w of TPGS) were then added and kept stirring at 45° C. at 700 rpm. Additionally to each of these mixtures, 100 ppm of Ascorbic Palmitate were added. After stirring for 24 hours, they were transferred into filter centrifugal tube and centrifuged at 40° C. for 5 minutes at 14000 rpm rate. The solutions in the bottom of filter centrifugal tube were weighed into 25 mL volumetric flasks (about 10-20 mg), diluent was added ACN:H2O=1:1 v/v, ultrasonicated for 10 min and more diluent was added to scale and analyze by UPLC (see method above). The solid residues after solubility test were collected and analyzed by XRPD (the solid residue in TPGS and TPGS with 5% PEG1000 were washed with water at 50° C. 3 times and analyzed by XRPD).
Solubility test of compound (a) in TPGS with different ratio of PEG1000 after stirring at 45° C. for 96 hours were further tested to determine the effect of time on solubility and XRPD pattern.

[4] = Solubility of compound (a) in mixed excipients (TPGS with Precirol ATO 5, PEG6000 or PEG3350)
Method: The solubility of these mixed excipients with compound (a) was then tested. Different ratios of the excipients were mixed at different temperatures (Table 6); then compound (a) was added and the mixtures stirred at the same temperature. The samples were analyzed by UPLC (see method above).

Solubility ([1]; in Gelucire 50/13, 55° C., 700 rpm for 24 hours): 141 mg/g | Solubility ([1]; in Gelucire 50/13, 60° C., 700 rpm for 24 hours): 148 mg/g | Solubility ([1]; in Gelucire 50/13 after stirring at 55° C. and 60° C. for 24 hours): higher than 120 mg/g | Solubility ([1]; in PEG 3350, 60° C., 700 rpm for 24 hours): 112 mg/g | Solubility ([1]; in PEG 3350, 65° C., 700 rpm for 24 hours): 121 mg/g | Solubility ([1]; in PEG 3350 at both 60° C. and 65° C.): ≤ 120 mg/g | Solubility ([2]; in PEG1000): about 140 mg/g | Solubility ([2]; in PEG 1000, 40° C., 700 rpm for 24 hours): 141 mg/g | Solubility ([2]; in PEG 1000, 50° C., 700 rpm for 24 hours): 146 mg/g | Solubility ([3]; in TPGS + 5 vol % PEG1000 + 100 ppm AP, 45° C., 96 h): 186 mg/g | Solubility ([3]; in TPGS + 5 vol % PEG1000, 45° C., 24 h): 263 mg/g | Solubility ([3]; in TPGS + 10 vol % PEG1000 + 100 ppm AP, 45° C., 96 h): 157 mg/g | Solubility ([3]; in TPGS + 10 vol % PEG1000, 45° C., 24 h): 206 mg/g | Solubility ([3]; in TPGS + 15 vol % PEG1000 + 100 ppm AP, 45° C., 96 h): 144 mg/g | Solubility ([3]; in TPGS + 15 vol % PEG1000, 45° C., 24 h): 179 mg/g | Solubility ([3]; in TPGS + 100 ppm AP, 45° C., 96 h): 225 mg/g | Solubility ([3]; in TPGS, 45° C., 24 h): 274 mg/g | Solubility ([4]; in TPGS:ATO5 90:10 w/w, 60° C.): 216.1 mg/g | Solubility ([4]; in TPGS:ATO5 90:10 w/w, 65° C.): 219.0 mg/g | Solubility ([4]; in TPGS:ATO5 95:5 w/w, 60° C.): 270.0 mg/g | Solubility ([4]; in TPGS:ATO5 95:5 w/w, 65° C.): 295.5 mg/g | Solubility ([4]; in TPGS:ATO5 98:2 w/w, 60° C.): 228.2 mg/g | Solubility ([4]; in TPGS:ATO5 98:2 w/w, 65° C.): 248.5 mg/g | Solubility ([4]; in TPGS:PEG3350 90:10 w/w, 55° C.): 71.0 mg/g | Solubility ([4]; in TPGS:PEG3350 90:10 w/w, 60° C.): 76.2 mg/g | Solubility ([4]; in TPGS:PEG6000 90:10 w/w, 55° C.): 60.8 mg/g | Solubility ([4]; in TPGS:PEG6000 90:10 w/w, 60° C.): 66.6 mg/g | Solubility ([4]; in TPGS:PEG6000 95:5 w/w, 55° C.): 81.0 mg/g | Solubility ([4]; in TPGS:PEG6000 95:5 w/w, 60° C.): 84.0 mg/g | Solubility ([4]; in TPGS:PEG6000 98:2 w/w, 55° C.): 63.0 mg/g | Solubility ([4]; in TPGS:PEG6000 98:2 w/w, 60° C.): 66.8 mg/g | Solubility ([4]; in the Precirol ATO 5/TPGS system): > 200 mg/g
SMILES: COc1cc(NC(C(=O)c2c[nH]c3ccc(OC(F)(F)F)cc23)c2ccc(Cl)cc2OC)cc(S(C)(=O)=O)c1 (centres unmarked) [compound (a)]
